Assays:
[1] = tested on: Rac1Δ/Δ+Rac2−/− murine leukemic cells expressing p190-BCR-ABL; experiment: Clonogenic ability of Rac-deficient leukemic cells; format: cell-based; details: 1 μM
Protocol: FIG. 13: IODVA1 decreases Rac activation and signaling. (A) Ba/F3 cells expressing p190-BCR-ABL1 were treated with IODVA1 (3 μM) as indicated and levels of active Rac (Rac-GTP) were assessed by pull-down using GST-PAK-GBD, followed by immunoblotting (upper panel) and densitometric quantification (lower panel). (B) Flow-cytometry analysis of pJNK, pS6, p4EBP, pPAK1, and pAKT of Ba/F3 cells expressing Mieg3 empty vector (light and dark blue) or p190-BCR-ABL1 (light and dark salmon) and treated with vehicle control or IODVA1 (3 μM) for 30 min. (C) Representative histogram data of the cell cycle analysis of Ba/F3 cells expressing p190-BCR-ABL and treated with vehicle control or IODVA1 (1, 3, and 10 μM) for 20 h. (D) Quantification of the average number of colonies of bone marrow wild-type (black) and Rac1^Δ/Δ+Rac2^−/− (red) p190-BCR-ABL1 leukemic cells treated with vehicle control or IODVA1 (IO1, 1 μM). ns—not significant, * p<0.05, ** p<0.01, *** p<0.001. […] (G) Ba/F3 cells expressing p190-BCR-ABL1 were treated with IODVA1 (3 μM) and levels of active Cdc42 (Cdc42-GTP) and Rho (Rho-GTP) were assessed by pull-down at the indicated times using GST-PAK-GBD and GST-Rhotekin respectively, followed by immunoblotting (left panel) and densitometric quantification (right panel). […]
To confirm that IODVA1 targets Rac-dependent pathways, we assessed its effects in a Rac2-null background. […]

[2] = tested on: Vav3−/− cells expressing p190-BCR-ABL; experiment: Cell cycle analysis; format: cell-based, murine; details: 3 μM, 20 h
Protocol: FIG. 14: IODVA1 targets Vav3 in vitro and in vivo. (A) Ba/F3 cells expressing empty vector Mieg3 or p190-BCR-ABL1 were treated with vehicle control or IODVA1 (IO1, 3 μM) for 30 min and incubated with GST-Rac and glutathione beads. Beads were washed and the protein complexes were separated on SDS-PAGE and immunoblotted for pVav3. Input Vav3 was used as control. (B) Binding affinity (Kd) between IODVA1 and Vav3 (green), LARG (brown), and RacGDP (blue). […] Error bars=SD; N=3. (C) Quantification of the average number of colonies made by bone marrow wild-type (black) and Vav3^−/− (lilac) p190-BCR-ABL1 leukemic cells treated with vehicle control or IODVA1 (IO1, 1 and 3 μM) (* p≤0.05; ** p≤0.01; *** p≤0.001; ns, not significant). (D) Representative histogram data of the cell cycle analysis of wild-type (black and grey bars) and Vav3^−/− (dark and light lilac) bone marrow cells expressing p190-BCR-ABL and treated with vehicle control or IODVA1 (IO1, 3 μM) for 20 h. (E) Quantification by densitometry of the pVav3 band from FIG. 14A. […]
Cell cycle was analyzed by using in vitro incorporation of 5-Bromo-2-deoxyuridine using Brdu Flow kit (BD Pharmingen, Cat #552598). […] DNAse treatment was done according to the instructions and stained with anti BrdU and apoptosis was analyzed by 7-AAD staining through flow cytometry analysis.

In the case of `OC1(c2ccccn2)N=C(Nc2nc3ccccc3[nH]2)N=C1c1ccccn1` (centres unmarked) [IODVA1, (Z)-2-((1H-benzo[d]imidazol-2-yl)imino)-4,5-di(pyridin-2-yl)-2,5-dihydro-1H-imidazol-5-ol], the “number of colonies formed” value [1] is reported as “did not alter” and the cell cycle [2] is reported as “not affected”.
